According to patent US10035800B2 (AbbVie Inc., priority 2013, dated 2018):

Legend:
[1] = biological target: T1, BRD4 (BDI_K57-E168) (Homo sapiens, UniProt O60885); assay: TR-FRET bromodomain binding assay, first bromodomain of BRD4; conditions: TR-FRET assay protocol G (compound 0.92 μM-15 pM); 100 nM probe
T1 construct: BD1: amino acids K57-E168; made in house
How it was run: (§1)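 Displacement of a fluorescent Alexa647 BET-inhibitor probe (100 nM with BDI, 30 nM with BDII) from His-tagged BRD4 bromodomains was monitored by europium TR-FRET after one hour at room temperature. Data were normalized to no-compound and 1 μM unlabelled probe controls, fitted with a four-parameter logistic, and IC50s converted to Ki.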

[2] = biological target: T2, BRD4 (BDII_E352-M457) (Homo sapiens, UniProt O60885); assay: TR-FRET bromodomain binding assay, second bromodomain of BRD4; conditions: TR-FRET assay protocol G (compound 0.92 μM-15 pM); 30 nM probe
T2 construct: protocol; made in house
How it was run: as §1

[3] = system: breast cancer cell line MX-1; assay: MX-1 cell line proliferation assay; format: cell-based; conditions: MX-1 cells, 3-day proliferation assay, Cell Titer Glo; read-out: Cellular proliferation: EC50
How it was run: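 EC50 comes from sigmoidal fits of Cell Titer Glo luminescence relative to DMSO controls, with assay MSR 2.1. Ten-point 3-fold dilutions (top 3 or 1 μM final) were added to MX-1 breast cancer cells after overnight adhesion. Cells were at 5000/well and proliferation ran 3 days.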

| Ki [1] | Ki [2] | EC50 [3] | Compound |
| --- | --- | --- | --- |
| 6.97 nM | 1.53 nM | 899 nM | Cn1cc2c3c(c[nH]c3c1=O)CN(Cc1ccccc1OCc1ccccn1)c1ccc(CS(C)(=O)=O)cc1-2 [Example 264, 10-methyl-7-((methylsulfonyl)methyl)-4-(2-(pyridin-2-ylmethoxy)benzyl)-3,4-dihydro-1H-1,4,10-triazadibenzo[cd,f]azulen-11(10H)-one] |
| 4.19 nM | 10.2 nM | 28.3 nM | COCC(C)N1Cc2c[nH]c3c(=O)n(C)cc(c23)-c2cc(CS(C)(=O)=O)ccc21 (stereo not drawn) [Example 185, 4-(1-methoxypropan-2-yl)-10-methyl-7-((methylsulfonyl)methyl)-3,4-dihydro-1H-1,4,10-triazadibenzo[cd,f]azulen-11(10H)-one] |
| 3.25 nM | 3.24 nM | 43.1 nM | CC(C)c1ccc(NC(=O)N2Cc3c[nH]c4c(=O)n(C)cc(c34)-c3cc(CS(C)(=O)=O)ccc32)cc1 [Example 69, N-(4-isopropylphenyl)-10-methyl-7-((methylsulfonyl)methyl)-11-oxo-10,11-dihydro-1H-1,4,10-triazadibenzo[cd,f]azulene-4(3H)-carboxamide] |
| 38.3 nM | 22.8 nM | 495 nM | Cc1cnc2c(c1)-c1cn(C)c(=O)c3[nH]cc(c13)C(c1ccccc1)N2c1ccc(F)cc1 (stereo not drawn) [Example 33, 4-(4-fluorophenyl)-7,10-dimethyl-3-phenyl-3,4-dihydro-1H-1,4,5,10-tetraazadibenzo[cd,f]azulen-11(10H)-one] |
| 8.8 nM | 22.5 nM | 845 nM | Cn1cc2c3c(c[nH]c3c1=O)CN(Cc1cccnn1)c1ccc(CS(C)(=O)=O)cc1-2 [Example 250, 10-methyl-7-((methylsulfonyl)methyl)-4-(pyridazin-3-ylmethyl)-3,4-dihydro-1H-1,4,10-triazadibenzo[cd,f]azulen-11(10H)-one] |
| 1.42 nM | 17 nM | 124 nM | CN1CCN(Cc2[nH]c3c(=O)n(C)cc4c3c2CN(c2ccc(Cl)cc2)c2ccccc2-4)CC1 [Example 146, 4-(4-chlorophenyl)-10-methyl-2-((4-methylpiperazin-1-yl)methyl)-3,4-dihydro-1H-1,4,10-triazadibenzo[cd,f]azulen-11(10H)-one] |
| 25.6 nM | 4.21 nM | 170 nM | CCS(=O)(=O)c1ccc2c(c1)-c1cn(C)c(=O)c3[nH]cc(c13)CN2[C@H](C)c1ccccc1 [Example 265, (R)-7-(ethylsulfonyl)-10-methyl-4-(1-phenylethyl)-3,4-dihydro-1H-1,4,10-triazadibenzo[cd,f]azulen-11(10H)-one] |
| 1.52 nM | 2.65 nM | 2.66 nM | Cn1cc2c3c(c[nH]c3c1=O)CN(C1CCC(NC(=O)OC(C)(C)C)CC1)c1ccc(CS(C)(=O)=O)cc1-2 (stereo not drawn) [Example 197, tert-butyl ((trans)-4-(10-methyl-7-((methylsulfonyl)methyl)-11-oxo-10,11-dihydro-1H-1,4,10-triazadibenzo[cd,f]azulen-4(3H)-yl)cyclohexyl)carbamate] |
| 9.26 nM | 2.36 nM | 342 nM | Cn1cc2c3c(c[nH]c3c1=O)C(CCC(=O)N1CCN(C(=O)OC(C)(C)C)CC1)N(c1ccc(F)cc1F)c1ccc(CS(C)(=O)=O)cc1-2 (stereo not drawn) [Example 125, tert-butyl 4-(3-(4-(2,4-difluorophenyl)-10-methyl-7-((methylsulfonyl)methyl)-11-oxo-3,4,10,11-tetrahydro-1H-1,4,10-triazadibenzo[cd,f]azulen-3-yl)propanoyl)piperazine-1-carboxylate] |
| 108 nM | 8.48 nM | 363 nM | Cn1cc2c3c(c[nH]c3c1=O)C(c1ccccn1)N(c1ccc(F)cc1F)c1ccc(CS(C)(=O)=O)cc1-2 (stereo not drawn) [Example 232, 4-(2,4-difluorophenyl)-10-methyl-7-((methylsulfonyl)methyl)-3-(pyridin-2-yl)-3,4-dihydro-1H-1,4,10-triazadibenzo[cd,f]azulen-11(10H)-one] |
| 21.8 nM | 12.1 nM | 313 nM | Cn1cc2c3c(c[nH]c3c1=O)C(c1cccc(C#N)c1)N(c1ccc(F)cc1F)c1ccc(CS(C)(=O)=O)cc1-2 (stereo not drawn) [Example 237, 3-(4-(2,4-difluorophenyl)-10-methyl-7-((methylsulfonyl)methyl)-11-oxo-3,4,10,11-tetrahydro-1H-1,4,10-triazadibenzo[cd,f]azulen-3-yl)benzonitrile] |
| 1.85 nM | 3.47 nM | 153 nM | CC(=O)NC1CCC(N2Cc3c[nH]c4c(=O)n(C)cc(c34)-c3cc(CS(C)(=O)=O)ccc32)CC1 (mixture of isomers) [Example 243, N-(4-(10-methyl-7-((methylsulfonyl)methyl)-11-oxo-10,11-dihydro-1H-1,4,10-triazadibenzo[cd,f]azulen-4(3H)-yl)cyclohexyl)acetamide] |
| 2.22 nM | 2.42 nM | 4.94 nM | Cn1cc2c3c(c[nH]c3c1=O)CN(Cc1ccccc1)c1ccc(CS(C)(=O)=O)cc1-2 [Example 247, 4-benzyl-10-methyl-7-((methylsulfonyl)methyl)-3,4-dihydro-1H-1,4,10-triazadibenzo[cd,f]azulen-11(10H)-one] |
| 1.32 nM | 2.01 nM | 30.6 nM | Cn1cc2c3c(c[nH]c3c1=O)CN(C(=O)Oc1ccc3ccccc3c1)c1ccc(CS(C)(=O)=O)cc1-2 [Example 90, naphthalen-2-yl 10-methyl-7-((methylsulfonyl)methyl)-11-oxo-10,11-dihydro-1H-1,4,10-triazadibenzo[cd,f]azulene-4(3H)-carboxylate] |
| 11.3 nM | 3.14 nM | > 1000 nM | Cn1cc2c3c(c[nH]c3c1=O)C(CCC(=O)NC1CCNCC1)N(c1ccc(F)cc1F)c1ccc(CS(C)(=O)=O)cc1-2 (stereo not drawn) [Example 132, 3-(4-(2,4-difluorophenyl)-10-methyl-7-((methylsulfonyl)methyl)-11-oxo-3,4,10,11-tetrahydro-1H-1,4,10-triazadibenzo[cd,f]azulen-3-yl)-N-(piperidin-4-yl)propanamide] |
| 12.4 nM | 4.67 nM | 69.9 nM | Cn1cc2c3c(c[nH]c3c1=O)CN(C(=O)CC(C)(C)C)c1c(F)cc(F)cc1-2 [Example 169, 4-(3,3-dimethylbutanoyl)-5,7-difluoro-10-methyl-3,4-dihydro-1H-1,4,10-triazadibenzo[cd,f]azulen-11(10H)-one] |
| 16.1 nM | 6.51 nM | 162 nM | Cn1cc2c3c(c[nH]c3c1=O)C(c1ccc(C#N)cc1)N(c1ccc(F)cc1F)c1ccc(CS(C)(=O)=O)cc1-2 (racemic) [Example 235, 4-(4-(2,4-difluorophenyl)-10-methyl-7-((methylsulfonyl)methyl)-11-oxo-3,4,10,11-tetrahydro-1H-1,4,10-triazadibenzo[cd,f]azulen-3-yl)benzonitrile] |
| 6.42 nM | 3.79 nM | 7.04 nM | Cn1cc2c3c(c[nH]c3c1=O)CN(C(=O)CC(C)(C)C)c1ccc(CS(C)(=O)=O)cc1-2 [Example 107, 4-(3,3-dimethylbutanoyl)-10-methyl-7-((methylsulfonyl)methyl)-3,4-dihydro-1H-1,4,10-triazadibenzo[cd,f]azulen-11(10H)-one] |
| 8.84 nM | 2.78 nM | 944 nM | Cn1cc2c3c(c[nH]c3c1=O)C(CCC(=O)NC1CCS(=O)(=O)C1)N(c1ccc(F)cc1F)c1ccc(CS(C)(=O)=O)cc1-2 (stereo not drawn) [Example 124, 3-(4-(2,4-difluorophenyl)-10-methyl-7-((methylsulfonyl)methyl)-11-oxo-3,4,10,11-tetrahydro-1H-1,4,10-triazadibenzo[cd,f]azulen-3-yl)-N-(1,1-dioxidotetrahydrothiophen-3-yl)propanamide] |
| 0.875 nM | 0.95 nM | 1.71 nM | N-(4-(4-fluorophenyl)-10-methyl-11-oxo-3,4,10,11-tetrahydro-1H-1,4,5,10-tetraazadibenzo[cd,f]azulen-7-yl)ethanesulfonamide [Example 22] |
| 16.1 nM | 2.24 nM | 108 nM | Cn1cc2c3c(c[nH]c3c1=O)C(Cn1ccccc1=O)N(c1ccc(F)cc1F)c1ccc(CS(C)(=O)=O)cc1-2 (single isomer, unassigned) [Example 252] |
| 14.4 nM | 1.11 nM | 182 nM | COC(=O)CCCCC1c2c[nH]c3c(=O)n(C)cc(c23)-c2cc(CS(C)(=O)=O)ccc2N1c1ccc(F)cc1F (stereo not drawn) [Example 134, methyl 5-(4-(2,4-difluorophenyl)-10-methyl-7-((methylsulfonyl)methyl)-11-oxo-3,4,10,11-tetrahydro-1H-1,4,10-triazadibenzo[cd,f]azulen-3-yl)pentanoate] |
| 1.72 nM | 0.8 nM | 13.3 nM | Cn1cc2c3c(c(C#N)[nH]c3c1=O)CN(c1ccc(F)cc1F)c1ccc(CS(C)(=O)=O)cc1-2 [Example 210, 4-(2,4-difluorophenyl)-10-methyl-7-((methylsulfonyl)methyl)-11-oxo-3,4,10,11-tetrahydro-1H-1,4,10-triazadibenzo[cd,f]azulene-2-carbonitrile] |

| Compound | Ki [1] | Ki [2] | EC50 [3] |
| --- | --- | --- | --- |
| 4-(2-(3-(dimethylamino)propoxy)benzyl)-10-methyl-7-((methylsulfonyl)methyl)-3,4-dihydro-1H-1,4,10-triazadibenzo[cd,f]azulen-11(10H)-one [Example 260] | 7.26 nM | 3.4 nM | 219 nM |
